{
  "source": "paper PMC7883289",
  "about": "“Synthesis of Paeonol-Ozagrel Conjugate: Structure Characterization and In Vivo Anti-Ischemic Stroke potential” (Frontiers in Pharmacology, 2021)",
  "key": {"[1]": {"system": "middle cerebral artery occlusion (MCAO) rats", "assay": "Measurement of infarct volume by TTC staining in MCAO rats", "format": "in vivo", "settings": "24 h after reperfusion, single iv dose: paeonol and OS 3 mg/kg, POC 4.5 mg/kg, n = 6", "experimental": "Male Sprague Dawley (SD) rats weighing among 220 g-230 g (Anhui Medicine University, Hefei, China; certificate number: SCXK20190,003) were housed under ad libitum access to food and water with a standardized light-dark cycle condition (25 ± 2°C, 12-hour light/dark cycle). All the experimental protocols were performed in accordance with the Institutional Animal Care and Use Committee of Anhui University of Chinese Medicine (Animal ethics number: AHUCM-rats-2019001). We used the minimal number of study animals (n = 6 rats in each group for different experiments). The rats were fastened upon the operating table in a supine position after being anesthetized with 2% pelltobarbitalum natricum (50 mg/kg). After disinfection of the skin within close proximity of the operative region, the right common carotid artery (CCA), external carotid artery (ECA) and internal carotid artery (ICA) were exposed with blunt dissection. The CCA was temporarily ligated and the ECA were permanently ligated ([Liu et al., 2016]). A nylon monofilament surgical thread was introduced into the ICA to block the MCA when the blunted distal end met resistance. After 2 h of occlusion, reperfusion was accomplished to restore blood supply to the MCA area by removing the filament ([Li et al., 2009]; [Zhai et al., 2017]). […] Rats were split randomly into five groups, including the sham, model, paeonol, OS and POC group. After 2 h of reperfusion, the paeonol and OS groups received the drug by intravenous injection at a single dose of 3 mg/kg ([Imamura et al., 2003]; [Park et al., 2010]; [Gai et al., 2019]), which the doses of paeonol and OS uesd previously were benificial in rats and the dose of OS is within the clinical dose range. […] Cerebral infarction volume was determined using TTC staining. […] The infarction and total brain volume were quantified using ImageJ software. The infarct volume was calculated as a ratio of the infarcted tissue relative to the total area of the whole-brain coronal section ([Ye and Gao, 2008]; [Katayama et al., 2017]). […]"}, "[2]": {"system": "middle cerebral artery occlusion (MCAO) rats", "assay": "Evaluation of neurological deficit (Longa score) in MCAO rats", "format": "in vivo", "settings": "24 h after reperfusion, single iv dose 2 h after reperfusion: paeonol and OS 3 mg/kg, POC 4.5 mg/kg, n = 6", "experimental": "Male Sprague Dawley (SD) rats weighing among 220 g-230 g (Anhui Medicine University, Hefei, China; certificate number: SCXK20190,003) were housed under ad libitum access to food and water with a standardized light-dark cycle condition (25 ± 2°C, 12-hour light/dark cycle). All the experimental protocols were performed in accordance with the Institutional Animal Care and Use Committee of Anhui University of Chinese Medicine (Animal ethics number: AHUCM-rats-2019001). We used the minimal number of study animals (n = 6 rats in each group for different experiments). The rats were fastened upon the operating table in a supine position after being anesthetized with 2% pelltobarbitalum natricum (50 mg/kg). After disinfection of the skin within close proximity of the operative region, the right common carotid artery (CCA), external carotid artery (ECA) and internal carotid artery (ICA) were exposed with blunt dissection. The CCA was temporarily ligated and the ECA were permanently ligated ([Liu et al., 2016]). A nylon monofilament surgical thread was introduced into the ICA to block the MCA when the blunted distal end met resistance. After 2 h of occlusion, reperfusion was accomplished to restore blood supply to the MCA area by removing the filament ([Li et al., 2009]; [Zhai et al., 2017]). […] Rats were split randomly into five groups, including the sham, model, paeonol, OS and POC group. […] Neurological deficit was evaluated 24 h after reperfusion (blinded to experimenters). […] The rating score was assessed by the following standard: no neurological deficit, 0; failure to extend left forepaw fully, one; spontaneous circling to the left, two; falling to the left, three; inability to walk spontaneously and coma of consciousness, 4. […] Neurological scores for each group were calculated using six rats according to a sample size calculation (α err prob = 0.05, 1-β err prob = 0.95) and references ([Katayama et al., 2017]; [[…] al., 2019]; [Zheng et al., 2019])."}},
  "data": [
    {"smiles": "O=C([O-])/C=C/c1ccc(Cn2ccnc2)cc1.[Na+]", "note": "[OS, Ozagrel sodium]", "values": [
      {"measurement": "cerebral infarction volume percentage", "setting": "[1]", "value": "18.68% ± 1.35"},
      {"measurement": "neurological deficits score (Longa, 0-4)", "setting": "[2]", "value": "2.00 ± 0.63"}
    ]},
    {"smiles": "COc1ccc(C(C)=O)c(O)c1", "note": "[paeonol]", "values": [
      {"measurement": "cerebral infarction volume percentage", "setting": "[1]", "value": "20.87% ± 1.43"},
      {"measurement": "neurological deficits score (Longa, 0-4)", "setting": "[2]", "value": "2.50 ± 0.55"}
    ]}
  ]
}
